Assay results taken from patent publication US12016860B2, “Combination therapies with Cbl-b inhibitor compounds” (Nurix Therapeutics, Inc., priority 2021, dated 2024).

How the values were obtained:
MC38 tumors = assay: MC38 model, combination with anti-PD-1 antibody; format: in vivo, mice
Description: This example provides assays and results for treating tumor models in vivo with combinations of Cbl-b compounds and anti-PD1 antibodies as described herein. The antibody is a mouse anti-PD1 RMP1-14 antibody, useful in mouse in vivo assays as model for administration of human PD-1 axis antagonists for treatment of human cancer.
Beginning on Day 10, tumor volumes were measured twice weekly.

BT549 tumor cell line = assay: Caspase 3/7 apoptosis Incucyte assay with paclitaxel, BT549; format: cell-based; conditions: 0.1 μM compound 23, 0.002 μM paclitaxel, vs 0.05% DMSO, combination also vs single agents p<0.0001
Description: BT549 cells were seeded in duplicate into tissue culture treated black-sided, clear-bottom 96-well plates at 5,000 ^cells/well and allowed to adhere and establish for 24 h. Cells were treated with DMSO, compound 23, or Paclitaxel either alone or in combination and were labelled with 1× Essen Bioscience IncuCyte® Caspase-3/7 Green Reagent (final concentration 5 μM). Treated plates were imaged every 2 hours for 48 hours with the IncuCyte® S3 Live-Cell Analysis System. At each timepoint, one image per well was taken in both brightfield and FITC channels on the IncuCyte® S3 Live-Cell Analysis System. Images were analyzed for number of green objects per mm^2 using the IncuCyte S3 v2017A software.
Using a caspase 3/7 apoptosis Incucyte® assay, the effect of compound 23, paclitaxel and the combination of compound 23 and paclitaxel on tumor cell apoptosis was assessed in the BT549 tumor cell line (a mammary gland carcinoma) in vitro.

Raji cells = assay: Raji model in SCID mice with NK cell depletion (anti-asialo-GM1); format: in vivo; conditions: p<0.0001
Description: Three additional groups of mice were treated in the presence of depleting antibodies for NK cells (anti-asialo-GM1).

orthotopic 4T1 tumors = assay: Flow cytometry of tumor and blood CD8+ T-cells in 4T1-tumor-bearing mice; format: in vivo; conditions: Day 28
[1] = system: total primary human T-cells; assay: IL-2 and IFN-γ release (ELISA) from stimulated primary human T-cells; format: cell-based; conditions: primary human T-cells stimulated with anti-CD3, with and without CD28 co-stimulation; lesser degree without co-stimulation
Description: Cells were stimulated with plate bound anti-CD3 (right) or anti-CD3/anti-CD28 (left) in the presence or absence of the indicated concentration of compound 23. Release of IL-2 or IFN-γ were assessed by ELISA. Compound 23 inhibition of Cbl-b enhanced IL-2 and IFN-γ secretion in primary human T-cells stimulated with anti-CD3 antibodies, in both the presence and absence of CD28 co-stimulation, although to a lesser degree in the absence of co-stimulation.

CT26 tumors [2] = assay: nCounter Mouse PanCancer Immune Profiling of CT26 tumors from treated mice; format: in vivo
Source text: In this example, the gene expression changes induced in tumors from mice treated with compound 23 studies were investigated. To perform this assessment, the nCounter PanCancer Immune Profiling Panel was used, which is a multiplexed gene expression panel developed by NanoString Technologies that measures expression of 770 immune and cancer related genes (Eastel et al., 2019, Expert Review of Molecular Diagnostics, 19(7):591-598). This technology is a unique gene expression tool that covers many important features of the immune response in the tumor microenvironment and was used to facilitate the understanding of immune related changes in tumors treated with compound 23.
In FIG. 4A, CT26 tumors were harvested after 4 doses and after 19 doses of compound 23 or vehicle and gene expression was directly measured using the nCounter Mouse PanCancer Immune Profiling Panel. Analysis was performed using the nSolver 4.0 and the nCounter Advanced Analysis software comparing gene expression in compound 23 to vehicle treated tumors. […] Statistical significance of differences in mean cell type scores between compound 23 and vehicle treated groups was evaluated using Mann-Whitney test (*P≤0.05, **P≤0.01, and ***P≤0.001).
(§1) In FIG. 4B, CT26 tumors were harvested after 4 treatment doses and gene expression was directly measured using the nCounter Mouse PanCancer Immune Profiling Panel. Analysis was performed using the nSolver 4.0 and the nCounter Advanced Analysis software comparing gene expression in compound 23 to vehicle treated tumors. As indicated in the titles above each panel, scatter plots of individual Pathway Signature Scores of vehicle and compound 23 treated tumors are shown. Statistical significance of differences in Pathway Signature Scores between compound 23 and vehicle treated groups was evaluated using Mann-Whitney test (*P≤0.05, **P≤0.01, and ***P≤0.001).
as §1, with “FIG. 4C,” for “FIG. 4B,”, “after 19” for “after 4”

CT26 tumors [3] = assay: Flow cytometry of tumor-infiltrating immune cells in CT26 tumors; format: in vivo, mice
Description: CT26 tumors were harvested after 19 doses of compound 23 or vehicle and tumor-infiltrating immune cell density and phenotype was assessed by flow cytometry.

CT26 tumors [4] = assay: CT26 tumor model with depleting antibodies for CD4+, CD8+ or NK cells; format: in vivo, mice; conditions: 30 mg/kg PO QD Day 9 to 25
Description: Tumor volume at Day 25 is indicated. CD8+ T-cell or NK cell depletion abrogates compound 23 activity. Stats were calculated with Mann-Whitney (Vehicle vs. compound 23) or one-way ANOVA with Dunn's multiple comparisons test (compound 23 vs. Depletion groups); (*P≤0.05, **P≤0.01, ****P≤0.0001). The efficacy of compound 23 on tumors is CD8+ T function and on NK cell function.

[5] = blood of 4T1-tumor-bearing mice

C[C@H]1CCCN(Cc2cc3c(c(C(F)(F)F)c2)CN(c2cccc([C@]4(c5nncn5C)C[C@@H](C)C4)c2)C3=O)C1 [compound 23]
interaction with PD-1 antibody blockade (MC38 tumors): synergizes | primary tumor volume (MC38 tumors; single agents vs vehicle, combination vs vehicle or either single agent): significantly smaller primary tumors | tumor cell apoptosis (caspase 3/7) (BT549 tumor cell line): did not undergo a significant increase in apoptosis | effect of NK cell depletion on activity (survival) (Raji cells): abrogates | frequency of tumor gp70 antigen-specific CD8+ T-cells (AH1 Dextramer+CD8+) (orthotopic 4T1 tumors; 4T1 tumors, 30 mg/kg daily PO): increased | frequency of tumor gp70 antigen-specific CD8+ T-cells with exhaustion phenotype (PD-1+ LAG3+) (orthotopic 4T1 tumors; 4T1 tumors, 30 mg/kg daily PO): decreased | frequency of circulating CD8+ T-cells with activated phenotype (PD-1+) (orthotopic 4T1 tumors; [5]): increased | frequency of circulating CD8+ T-cells with memory phenotype (CD44+CD27+CD127+) (orthotopic 4T1 tumors; [5]): increased | IFN-γ secretion [1]: enhanced | IL-2 secretion [1]: enhanced | T-cell, B cell, NK cell and adaptive immune function pathway scores (CT26 tumors [2]; after 4 doses): not significant | gene expression in innate immune signaling pathways (dendritic cell function, macrophage function, chemokine receptors and pathways) (CT26 tumors [2]; after 4 doses): significant gene expression changes | cytotoxic cell infiltration score (CT26 tumors [2]; after 4 doses, 30 mg/kg daily PO, vs vehicle, P=0.1061): clear trend of increased infiltration | infiltration of tumor infiltrating lymphocytes (TIL) score (CT26 tumors [2]; after 4 doses, 30 mg/kg daily PO, vs vehicle, P=0.6679): clear trend of increased infiltration | T-cell infiltration score (CT26 tumors [2]; after 4 doses, 30 mg/kg daily PO, vs vehicle, P=0.7551): clear trend of increased infiltration | immune related pathway scores (CT26 tumors [2]; after 19 doses): significantly enhanced function | cytotoxic cell infiltration score (CT26 tumors [2]; after 19 doses PO, vs vehicle, P=0.0002): significant increases | TIL infiltration score (CT26 tumors [2]; after 19 doses PO, vs vehicle, P=0.0044): significant increases | T-cell infiltration score (CT26 tumors [2]; after 19 doses PO, vs vehicle, P=0.0098): significant increases | CD8+ T-cells to Tregs ratio (CT26 tumors [3]; 19 doses): increased | CD8+ effector T-cells (PD1+) to Tregs ratio (CT26 tumors [3]; 19 doses): increased | frequency of CD8+ T-cells that express the activation marker CD29 (CT26 tumors [3]; 19 doses): increased | frequency of total CD3+ T-cells as a percentage of CD45+ leukocytes (CT26 tumors [3]; 19 doses): increased | frequency of total CD8+ T-cells as a percentage of CD45+ leukocytes (CT26 tumors [3]; 19 doses): increased | frequency of tumor-infiltrating NK cells with cytotoxic phenotype (Granzyme+) (CT26 tumors [3]; 19 doses): increased | number of total CD8+ T-cells per gram of tumor (CT26 tumors [3]; 19 doses): increased | number of tumor-infiltrating leukocytes (TIL) per gram of tumor (CT26 tumors [3]; 19 doses 30 mg/kg daily PO): increased | effect of CD8+ T-cell depletion on compound activity (tumor volume at Day 25) (CT26 tumors [4]): abrogates | effect of NK cell depletion on compound activity (tumor volume at Day 25) (CT26 tumors [4]; anti-asialo-GM1): abrogates
